Measured values as given in US20240109910A1, “HEXAHYDRO-5,8-EPOXYCYCLOHEPTA[c]PYRAZOLE DERIVATIVES USEFUL AS MODULATORS OF THE CB1 AND / OR CB2 RECEPTORS” (JANSSEN PHARMACEUTICA NV, priority 2019, published 2024).
Read-outs that look alike come from different tables or passages of the source.

Legend:
[1] = target: hCB1 receptor (Homo sapiens, UniProt P21554); assay: Agonism of CB1 by detection of cAMP using HTRF; assay type: cell-based; details: for Emax: normalized to DMSO and maximal activation (5 nM CP55940)
Sequence of hCB1 receptor (P21554 whole entry): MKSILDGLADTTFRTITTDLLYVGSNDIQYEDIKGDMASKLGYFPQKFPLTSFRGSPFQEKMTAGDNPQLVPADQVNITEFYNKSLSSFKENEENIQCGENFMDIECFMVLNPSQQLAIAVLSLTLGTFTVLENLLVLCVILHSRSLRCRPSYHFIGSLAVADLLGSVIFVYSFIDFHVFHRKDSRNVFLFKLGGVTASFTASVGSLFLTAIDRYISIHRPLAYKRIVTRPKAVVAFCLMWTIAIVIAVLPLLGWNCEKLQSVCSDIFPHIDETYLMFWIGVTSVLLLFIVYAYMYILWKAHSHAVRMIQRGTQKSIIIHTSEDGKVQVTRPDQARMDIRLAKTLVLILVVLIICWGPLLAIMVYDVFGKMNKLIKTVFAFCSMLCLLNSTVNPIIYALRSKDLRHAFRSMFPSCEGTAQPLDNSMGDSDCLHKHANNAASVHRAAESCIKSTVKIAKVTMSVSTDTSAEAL
Procedure: (§1) Method for Assaying Agonism of CB1 or CB2 by Detection of cAMP Using Homogeneous Time-Resolved Fluorescence (HTRF®)
(§2) CHOP-K1 cells stably expressing the CB1 receptor (PerkinElmer, ES-110-C) or the CB2 receptor (PerkinElmer, ES-111-CF) were seeded into 384 well white TC-treated plates (Greiner 781080) at 7000 cells per well in Ham's media (Gibco #31765-035) supplemented with 10% FBS (Gibco #16000-044) and 500 μg/mL Geneticin (Gibco #10131-027) and cultured overnight. The next day, plates were washed one time in assay buffer (HBSS with Ca^2+ and Mg^2+ (Corning #21-023-CV)+20 mM HEPES (Corning #25-060-Cl) and 0.01% BSA (Sigma A2153)). In a separate compound plate (Greiner 781201-906), 50 nL of test compound or DMSO was transferred using the Echo 550 (Labcyte), then 40 μL/well of assay buffer with 0.5 mM IBMX, 2 μM Forskolin (Sigma F3917), and 0.01% BSA was added. For the CB1 assay, assay buffer was dumped from the cell plate and fresh assay buffer containing 0.5 mM IBMX (Sigma I5679) was added at 30 μL/well, and the plate was incubated for 1 hr at 37° C., 5% CO2. Following the IBMX pre-treatment step, buffer was dumped from the cell plate, and 20 μL/well of the assay buffer with test compound was transferred into the cell plate with a subsequent incubation of 20 min at room temperature. Reagents for cAMP detection (cisbio 62AM4PEJ) were prepared and subsequently transferred to the cell plate at 20 μL/well. Following a 1 hr incubation at room temperature, the plate was read on the Pherastar FX (BMG, excitation 320 nm, detection at 620 nm (donor) and 665 nm (acceptor)). The ratio of signal at 665 nm/620 nm was determined for each well in the plate. For each assay day, a cAMP standard curve was run in parallel to assess the range of response and determine the concentration of cAMP in each well. Control wells (n=16 of each) with no activation of CB1 receptor (DMSO) and maximal activation (5 nM CP55940, Sigma) were used to normalize the data and to determine signal-to-background ratio and Z′. For the CB2 assay, conditions were as described above for the CB1 assay, except that the IBMX preincubation step was not used and that the 20 min compound incubation step occurred in the incubator at 37° C., 5% CO2.
(§3) EC50 values were calculated from dose response curves by nonlinear regression analysis using PRISM software.
(§4) Representative compounds of the present invention were tested according to the procedures described in Biological Example 1 above, with results as listed in Table 3, below. If a compound was tested more than once (due to multiple samples or batches), then the value listed in Table 3 below represents the average of the measured values.

[2] = target: hCB2 receptor (Homo sapiens, UniProt P34972); assay: Agonism of CB2 by detection of cAMP using HTRF; assay type: cell-based; details: for Emax: normalized to DMSO and maximal activation (5 nM CP55940)
Sequence of hCB2 receptor (P34972 whole entry): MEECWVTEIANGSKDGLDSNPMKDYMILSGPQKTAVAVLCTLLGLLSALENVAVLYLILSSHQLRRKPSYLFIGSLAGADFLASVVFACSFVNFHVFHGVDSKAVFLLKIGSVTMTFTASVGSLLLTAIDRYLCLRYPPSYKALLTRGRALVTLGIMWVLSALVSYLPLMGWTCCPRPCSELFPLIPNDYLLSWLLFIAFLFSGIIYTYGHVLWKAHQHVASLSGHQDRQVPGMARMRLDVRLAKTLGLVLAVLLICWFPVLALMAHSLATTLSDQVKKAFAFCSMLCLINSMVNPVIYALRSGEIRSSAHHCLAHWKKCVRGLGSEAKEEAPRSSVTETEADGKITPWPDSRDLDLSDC
Procedure: as §1, §2, §3, §4

[3] = CHO cells stably expressing CB1 receptor, cAMP HTRF, forskolin-stimulated, average if tested more than once, read-out: hCB1 CHO EC50
[4] = CHO cells stably expressing CB1 receptor
[5] = CHO cells stably expressing CB2 receptor, cAMP HTRF, forskolin-stimulated, average if tested more than once, read-out: hCB2 CHO EC50
[6] = CHO cells stably expressing CB2 receptor

Row | SMILES | EC50 [1, 3] [nM] | Emax [1, 4] [%] | EC50 [2, 5] [nM] | Emax [2, 6] [%] | EC50 [1] [nM] | EC50 [2] [nM]
1 | O=C(NC12CC(C1)C2)c1nn(-c2cnccn2)c2c1CC1CCC2O1 (stereo not drawn) [Compound 12, N-(bicyclo[1.1.1]pentan-1-yl)-1-(pyrazin-2-yl)-1,4,5,6,7,8-hexahydro-5,8-epoxycyclohepta[c]pyrazole-3-carboxamide] | 1510 | 90.8 | 0.24 | 99.5 |  | 
2 | O=C(NC12CC3CC(CC1C3)C2)c1nn(-c2cnccn2)c2c1CC1CCC2O1 [Compound 13, N-((2R,3as,5S,6as)-hexahydro-2,5-methanopentalen-3a(1H)-yl)-1-(pyrazin-2-yl)-1,4,5,6,7,8-hexahydro-5,8-epoxycyclohepta[c]pyrazole-3-carboxamide] | 16.6 | 111 | 0.02 | 100 |  | 
3 | O=C(NC12CCC(CC1)CC2)c1nn(-c2cnccn2)c2c1CC1CCC2O1 (stereo not drawn) [Compound 14, N-(bicyclo[2.2.2]octan-1-yl)-1-(pyrazin-2-yl)-1,4,5,6,7,8-hexahydro-5,8-epoxycyclohepta[c]pyrazole-3-carboxamide] | 61.8 | 103 | 0.06 | 100 |  | 
4 | CC(C)(C)[C@@H](CO)NC(=O)c1nn(-c2c[n+]([O-])ccn2)c2c1C[C@H]1CC[C@@H]2O1 [Compound 16, 3-((5R,8S)-3-(((S)-1-hydroxy-3,3-dimethylbutan-2-yl)carbamoyl)-5,6,7,8-tetrahydro-5,8-epoxycyclohepta[c]pyrazol-1(4H)-yl)pyrazine 1-oxide] | 352 | 91.3 | 0.09 | 101 |  | 
5 | O=C(NC1(C(F)(F)F)CCC1)c1nn(-c2c[n+]([O-])ccn2)c2c1CC1CCC2O1 (stereo not drawn) [Compound 18, 3-(3-((1-(trifluoromethyl)cyclobutyl)carbamoyl)-5,6,7,8-tetrahydro-5,8-epoxycyclohepta[c]pyrazol-1(4H)-yl)pyrazine 1-oxide] | 198 | 90.7 | 0.04 | 99.9 |  | 
6 | O=C(NC12CC(C1)C2)c1nn(-c2c[n+]([O-])ccn2)c2c1CC1CCC2O1 (stereo not drawn) [Compound 20, 3-(3-(bicyclo[1.1.1]pentan-1-ylcarbamoyl)-5,6,7,8-tetrahydro-5,8-epoxycyclohepta[c]pyrazol-1(4H)-yl)pyrazine 1-oxide] | 1780 | 91 | 0.05 | 100 |  | 
7 | O=C(NC12CC3CC(CC1C3)C2)c1nn(-c2c[n+]([O-])ccn2)c2c1CC1CCC2O1 [Compound 21, 3-(3-(((2R,3as,5S,6as)-hexahydro-2,5-methanopentalen-3a(1H)-yl)carbamoyl)-5,6,7,8-tetrahydro-5,8-epoxycyclohepta[c]pyrazol-1(4H)-yl)pyrazine 1-oxide] | 28.2 | 94.9 | 0.02 | 99.9 |  | 
8 | O=C(NC12CCC(CC1)CC2)c1nn(-c2c[n+]([O-])ccn2)c2c1CC1CCC2O1 (stereo not drawn) [Compound 22, 3-(3-(bicyclo[2.2.2]octan-1-ylcarbamoyl)-5,6,7,8-tetrahydro-5,8-epoxycyclohepta[c]pyrazol-1(4H)-yl)pyrazine 1-oxide] | 48.5 | 96.5 | 0.02 | 99.7 |  | 
9 | CC(C)(C)c1cnc(-c2nn(-c3c[n+]([O-])ccn3)c3c2CC2CCC3O2)s1 (stereo not drawn) [Compound 24, 3-(3-(5-(tert-butyl)thiazol-2-yl)-5,6,7,8-tetrahydro-5,8-epoxycyclohepta[c]pyrazol-1(4H)-yl)pyrazine 1-oxide] | 65.7 | 95.5 | 0.06 | 97.8 |  | 
10 | CCC(C)(C)c1noc(-c2nn(-c3c[n+]([O-])ccn3)c3c2CC2CCC3O2)n1 (stereo not drawn) [Compound 25, 3-(3-(3-(tert-pentyl)-1,2,4-oxadiazol-5-yl)-5,6,7,8-tetrahydro-5,8-epoxycyclohepta[c]pyrazol-1(4H)-y)pyrazine 1-oxide] | 114 | 98.9 | 0.02 | 99.5 |  | 
11 | CC(C)(C)c1noc(-c2nn(-c3c[n+]([O-])ccn3)c3c2CC2CCC3O2)n1 (stereo not drawn) [Compound 26, 3-(3-(3-(tert-butyl)-1,2,4-oxadiazol-5-yl)-5,6,7,8-tetrahydro-5,8-epoxycyclohepta[c]pyrazol-1(4H)-yl)pyrazine 1-oxide] | 4920 | 73.3 | 0.13 | 100 |  | 
12 | CC(C)(C)c1nnc(-c2nn(-c3c[n+]([O-])ccn3)c3c2CC2CCC3O2)s1 (stereo not drawn) [Compound 27, 3-(3-(5-(tert-butyl)-1,3,4-thiadiazol-2-yl)-5,6,7,8-tetrahydro-5,8-epoxycyclohepta[c]pyrazol-1(4H)-yl)pyrazine 1-oxide] | 130 | 94.9 | 0.06 | 99 |  | 
13 | CC(C)(C)c1nnc(-c2nn(-c3c[n+]([O-])ccn3)c3c2CC2CCC3O2)o1 (stereo not drawn) [Compound 29, 3-(3-(5-(tert-butyl)-1,3,4-oxadiazol-2-yl)-5,6,7,8-tetrahydro-5,8-epoxycyclohepta[c]pyrazol-1(4H)-yl)pyrazine 1-oxide] | 2370 | 79.3 | 0.2 | 101 |  | 
14 | CC(C)(C)NC(=O)c1nn(-c2c[n+]([O-])ccn2)c2c1CC1CCC2O1 (stereo not drawn) [Compound 31, 3-(3-(tert-butylcarbamoyl)-5,6,7,8-tetrahydro-5,8-epoxycyclohepta[c]pyrazol-1(4H)-yl)pyrazine 1-oxide] | 1430 | 83.2 | 0.33 | 99.7 |  | 
15 | CC(C)(C)c1noc(-c2nn(-c3cnccn3)c3c2CC2CCC3O2)n1 (stereo not drawn) [Compound 37, 3-(3-(tert-butyl)-1,2,4-oxadiazol-5-yl)-1-(pyrazin-2-yl)-1,4,5,6,7,8-hexahydro-5,8-epoxycyclohepta[c]pyrazole] | 177 | 34.8 | 0.22 | 99.2 |  | 
16 | CC(C)(C)c1nnc(-c2nn(-c3cnccn3)c3c2CC2CCC3O2)s1 (stereo not drawn) [Compound 38, 3-(5-(tert-butyl)-1,3,4-thiadiazol-2-yl)-1-(pyrazin-2-yl)-1,4,5,6,7,8-hexahydro-5,8-epoxycyclohepta[c]pyrazole] |  | 114 |  | 100 | 283 | 0.04
17 | O=C(NC12CC3CC(CC1C3)C2)c1nn(-c2ccc(F)cc2F)c2c1CC1CCC2O1 [Compound 41, 1-(2,4-difluorophenyl)-N-((2R,3as,5S,6as)-hexahydro-2,5-methanopentalen-3a(1H)-yl)-1,4,5,6,7,8-hexahydro-5,8-epoxycyclohepta[c]pyrazole-3-carboxamide] | 0.7 | 98 | 0.08 | 99.1 |  | 
18 | O=C(NC[C@]12C[C@@H]3C[C@@H](C[C@@H](C3)C1)C2)c1nn(-c2ccc(F)cc2F)c2c1CC1CCC2O1 [Compound 42, N-(((3r,5r,7r)-adamantan-1-yl)methyl)-1-(2,4-difluorophenyl)-1,4,5,6,7,8-hexahydro-5,8-epoxycyclohepta[c]pyrazole-3-carboxamide] | 260 | 98.2 | 10.3 | 77.1 |  | 
